Data: patent publication US5663194A, “Chroman-2-ylmethylamino derivatives” (priority 1996, dated 1997)

How the values were obtained:
[1] = system: α1; test: α1; assay type: binding
[2] = biological target: T1, dopamine D-2 receptor (Rattus norvegicus, UniProt P61169); test: Affinity for the dopamine D-2 receptor: 3H-spiroperidol (Spiper.) binding in homogenized limbic brain tissue; settings: read-out: IC50 D2 Spiper.
T1 construct: homogenized limbic brain tissue is incubated with; from tissue; host or cells: limbic brain tissue, homogenized
T1 sequence (P61169 whole entry): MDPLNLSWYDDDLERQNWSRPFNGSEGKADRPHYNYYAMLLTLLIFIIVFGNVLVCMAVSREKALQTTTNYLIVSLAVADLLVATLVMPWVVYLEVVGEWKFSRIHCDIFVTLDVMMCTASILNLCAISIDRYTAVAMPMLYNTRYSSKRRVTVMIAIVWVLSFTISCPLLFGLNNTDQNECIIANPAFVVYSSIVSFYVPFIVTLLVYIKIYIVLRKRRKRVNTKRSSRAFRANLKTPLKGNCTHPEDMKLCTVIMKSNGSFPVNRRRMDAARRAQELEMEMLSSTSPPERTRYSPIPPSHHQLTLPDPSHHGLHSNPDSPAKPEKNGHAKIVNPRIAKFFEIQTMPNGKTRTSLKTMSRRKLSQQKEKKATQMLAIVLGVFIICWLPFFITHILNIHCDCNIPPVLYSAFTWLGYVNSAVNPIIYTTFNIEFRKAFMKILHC

[3] = biological target: T2, 5-HT1a (Homo sapiens, UniProt P08908); test: 5-HT1a; assay type: binding
T2 sequence (P08908 1-422): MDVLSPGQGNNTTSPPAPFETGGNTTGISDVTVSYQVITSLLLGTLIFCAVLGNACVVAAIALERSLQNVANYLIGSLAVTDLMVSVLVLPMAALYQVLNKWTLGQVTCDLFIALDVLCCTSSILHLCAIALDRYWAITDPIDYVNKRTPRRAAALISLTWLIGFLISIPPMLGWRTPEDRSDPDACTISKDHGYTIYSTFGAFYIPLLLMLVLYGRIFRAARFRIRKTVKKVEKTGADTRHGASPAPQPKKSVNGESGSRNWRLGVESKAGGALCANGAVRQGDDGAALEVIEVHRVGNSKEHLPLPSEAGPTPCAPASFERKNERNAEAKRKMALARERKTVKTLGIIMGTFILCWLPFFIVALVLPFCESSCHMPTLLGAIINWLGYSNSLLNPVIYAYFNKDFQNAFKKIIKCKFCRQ

[4] = biological target: T3, dopamine autoreceptor (D2) (Rattus norvegicus, UniProt P61169); test: Affinity for the dopamine autoreceptor: 3H-quinpirole (Quin.) binding in homogenized rat striatal brain tissue
T3 construct: homogenized rat striatal brain tissue is incubated with; from tissue; host or cells: rat striatal brain tissue, homogenized
T3 sequence (P61169 whole entry): as the sequence (P61169 whole entry) above

Structure (SMILES)	IC50 [1] [nM]	IC50 [2] [nM]	IC50 [3] [nM]	IC50 [4] [nM]
c1ccc(CNCC2CCc3ccccc3O2)cc1 (centres unmarked) [reference compound]	630	–	–	–
CCCNCC1CCc2ccc(NS(C)(=O)=O)cc2O1 (centres unmarked) [Example 1c, N-(2-Propylaminomethyl-chroman-7-yl)-methanesulfonamide]	1420	4860	218	184
